{"source": "paper PMC5934670", "about": "(Nucleic Acids Research, 2018)", "key": {"TorR": {"target": "T1, TorR (Escherichia coli, UniProt P38684)", "T1 sequence (P38684 1-230)": "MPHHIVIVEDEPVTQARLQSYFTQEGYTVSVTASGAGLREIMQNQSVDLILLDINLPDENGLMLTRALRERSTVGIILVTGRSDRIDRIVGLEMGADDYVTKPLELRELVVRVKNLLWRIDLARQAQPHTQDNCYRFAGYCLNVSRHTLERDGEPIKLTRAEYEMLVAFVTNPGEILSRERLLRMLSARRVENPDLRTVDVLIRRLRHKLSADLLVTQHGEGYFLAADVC", "assay": "Genomic SELEX-chip, rise of specific DNA binding", "details": "phosphodonor, no TorS; phosphorylation itself not measured; covalent"}, "KdpE": {"target": "T2, KdpE (Escherichia coli, UniProt P21866)", "T2 sequence (P21866 1-225)": "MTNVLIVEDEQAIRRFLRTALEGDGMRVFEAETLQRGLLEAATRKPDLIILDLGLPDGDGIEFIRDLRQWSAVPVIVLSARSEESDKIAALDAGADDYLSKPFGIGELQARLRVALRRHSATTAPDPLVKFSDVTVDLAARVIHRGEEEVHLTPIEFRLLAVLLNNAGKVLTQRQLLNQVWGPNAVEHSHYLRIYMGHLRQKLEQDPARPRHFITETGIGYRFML", "assay": "Genomic SELEX-chip, rise of specific DNA binding", "details": "phosphodonor, no KdpD; phosphorylation itself not measured; covalent"}, "LacI": {"target": "LacI (Escherichia coli, UniProt P03023)", "sequence (P03023 whole entry)": "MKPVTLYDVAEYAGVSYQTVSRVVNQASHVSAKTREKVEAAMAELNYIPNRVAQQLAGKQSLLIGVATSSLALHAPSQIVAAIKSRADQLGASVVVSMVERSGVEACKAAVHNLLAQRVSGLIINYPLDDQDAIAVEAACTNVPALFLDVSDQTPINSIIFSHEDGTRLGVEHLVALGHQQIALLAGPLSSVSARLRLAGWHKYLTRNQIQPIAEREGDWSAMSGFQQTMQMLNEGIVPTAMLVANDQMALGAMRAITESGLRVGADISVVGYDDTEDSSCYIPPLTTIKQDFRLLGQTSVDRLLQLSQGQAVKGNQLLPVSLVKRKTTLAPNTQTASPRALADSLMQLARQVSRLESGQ", "assay": "Genomic SELEX-chip, loss of DNA binding", "details": "inducer; increasing IPTG; lac operator DNA"}, "NanR": {"target": "T3, NanR (Escherichia coli, UniProt P0A8W0)", "T3 sequence (P0A8W0 1-263)": "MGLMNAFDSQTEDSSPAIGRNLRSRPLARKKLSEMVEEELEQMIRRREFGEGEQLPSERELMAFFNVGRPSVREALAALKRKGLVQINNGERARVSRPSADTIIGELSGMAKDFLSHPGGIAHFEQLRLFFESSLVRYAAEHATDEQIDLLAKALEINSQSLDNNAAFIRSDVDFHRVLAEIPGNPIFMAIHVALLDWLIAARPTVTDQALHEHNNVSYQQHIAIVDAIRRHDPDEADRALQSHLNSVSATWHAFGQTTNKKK", "assay": "Genomic SELEX-chip, change of DNA-binding specificity", "details": "effector; genomic DNA library"}}, "data": [{"smiles": "CC(=O)OP(=O)(O)O", "note": "[AcP]", "values": [{"measurement": "Genomic SELEX-chip, rise of specific DNA binding", "setting": "TorR", "value": "the level of TorR binding to this target was higher in the presence of AcP"}, {"measurement": "Genomic SELEX-chip, rise of specific DNA binding", "setting": "KdpE", "value": "The binding affinity to this single target increased in the presence of AcP"}]}, {"smiles": "CC(C)S[C@@H]1O[C@H](CO)[C@H](O)[C@H](O)[C@H]1O", "note": "[IPTG]", "values": [{"measurement": "Genomic SELEX-chip, loss of DNA binding", "setting": "LacI", "value": "level of LacI binding at the lacZ promoter region decreased concomitant with the increased addition of IPTG"}]}, {"smiles": "CC(=O)N[C@H]1[C@H]([C@H](O)[C@H](O)CO)OC(O)(C(=O)O)C[C@@H]1O", "note": "(stereo partly shown) [Neu5Ac]", "values": [{"measurement": "Genomic SELEX-chip, change of DNA-binding specificity", "setting": "NanR", "value": "The binding of NanR to these non-specific sites disappeared in the presence of Neu5Ac"}]}]}
